Assays:
HL-60 = test: Compound was evaluated for its relative cell differentiation of human promyelocytic leukemia cells (HL-60); format: functional
[1] = biological target: T1, Vitamin D3 receptor (Bos taurus) (UniProt Q28037); test: Affinity for bovine thymus vitamin D receptor
T1 sequence (whole entry): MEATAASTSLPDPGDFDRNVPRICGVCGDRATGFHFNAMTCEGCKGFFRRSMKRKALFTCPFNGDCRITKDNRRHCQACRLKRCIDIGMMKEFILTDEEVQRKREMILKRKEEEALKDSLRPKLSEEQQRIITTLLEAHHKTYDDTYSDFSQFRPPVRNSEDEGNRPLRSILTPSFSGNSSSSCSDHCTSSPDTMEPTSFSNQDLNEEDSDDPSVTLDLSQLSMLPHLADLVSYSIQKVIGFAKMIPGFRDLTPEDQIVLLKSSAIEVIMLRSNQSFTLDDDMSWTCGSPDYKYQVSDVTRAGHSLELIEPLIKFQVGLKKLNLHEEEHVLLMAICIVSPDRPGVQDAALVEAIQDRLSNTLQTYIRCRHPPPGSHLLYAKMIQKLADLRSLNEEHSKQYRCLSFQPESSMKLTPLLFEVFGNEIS

Row | SMILES | Activity (HL-60) | Activity [1]
1 | C=C1/C(=C\C=C2/CCC[C@@]3(C)C2CC[C@@H]3C(CCCC(C)(C)O)CCCC(C)(C)O)C[C@@H](O)[C@H](OCCCO)[C@@H]1O (stereo not given in full) | 1920 | 36
2 | C=C1/C(=C\C=C2/CCC[C@@]3(C)C2CC[C@@H]3C(CCCC(C)(C)O)CCCC(C)(C)O)C[C@@H](O)C[C@@H]1O (stereo not given in full) | 1060 | 24
3 | C=C1/C(=C\C=C2/CCC[C@@]3(C)C2CC[C@@H]3C(CCCC(C)(C)O)CCCC(C)(C)O)C[C@@H](O)[C@H](CCCO)[C@@H]1O (stereo not given in full) | 1280 | 57
4 | C=C1/C(=C\C=C2/CCC[C@]3(C)[C@@H]([C@H](C)CCCC(C)(C)O)CC[C@@H]23)C[C@@H](O)C[C@@H]1O [CALCITRIOL] | 100 | 100
5 | C=C1/C(=C\C=C2/CCC[C@@]3(C)C2CC[C@@H]3C(CCCC(C)(C)O)CCCC(C)(C)O)C[C@@H](O)[C@H](C)[C@@H]1O (stereo not given in full) | 3840 | 53

From ChEMBL document CHEMBL1134959, “Synthesis and testing of 2alpha-modified 1alpha,25-dihydroxyvitamin D(3) analogues with a double side chain: marked cell differentiation activity” (2002)
